Experimental data reported in patent US20030124742A1, “Conjugates targeted to target receptors” (priority 2001, published 2003).
≈ marks a conversion by molar mass, not a printed value. Where two headings read alike, the source gives them in different places. Where no end group is shown, it is not given here.

B1: WL38 peptide (MVKDLSNPSRYL) (peptide)
peptide: MVKDLSNPSRYL
modifications: also: 125I-iodinated, residue not given here
notes: Synthetic HER-2-targeting peptide; also called TT38; 125I-WL38

What was measured:
[1] = test system: SK-BR3 (HER-2 positive) breast carcinoma cell line; experiment: EDR assay, SK-BR3; assay type: cell-based; conditions: Homo sapiens, SK-BR-3, 120 h; 5 days of incubation
Protocol: (§1) The PC3 prostate carcinoma, as well as the MCF7-WT and SK-BR3 breast carcinoma cell lines were obtained from ATCC and maintained in RPMI 1640 (GibcoBRL, Grand Island, N.Y.) supplemented with 10% fetal bovine serum (FBS, Omega Scientific, Tarzana, Calif.), 100 IU/ml penicillin, 100 μg/ml streptomycin, and 2 mM L-glutamine (Irvine Scientific, Irvine, Calif.) (complete growth medium). Cells were harvested with 0.25% trypsin (GibcoBRL) after washing twice with phosphate-buffered saline (PBS, Irvine Scientific), then washed with complete medium, counted and checked for viability using trypan blue. Different passages of the cell line were tested for their resistance to WL68-DXR vs. native doxorubicin to evaluate the stability of WL68-DXR under storage at −70° C. […]
(§2) 103 mg of 20 KD mpPEG-8PA-WL68-DXR (further referred to as WL-68-DXR) was dissolved in 10.3 ml of sterile PBS, aliquoted in plastic 1 ml tubes and kept at −70° C. until analysis. […] Positive controls were determined using at least 2 wells treated with an extremely high dose of cisplatin. […]
(§3) Cells were incubated with drugs under standard culture conditions for five days. […] The radioactivity trapped on the filters was counted with a Beckman scintillation counter. The fraction of surviving cells was determined by comparing ^3H-TdR incorporation in treated (experimental points) and untreated (negative control) wells. […]

HUT 78 tumor = experiment: In vivo efficacy, murine model of human cutaneous T-cell lymphoma (HUT 78)
Protocol: In vitro cytotoxicity against human T-cell lymphoma cell line HUT 78 and human ovarian cancer cell lines A-2780R, as well as in vitro screening on several fresh human tumor specimens from different types of cancer were evaluated. The in vivo efficacy was determined using murine models for human cutaneous T-cell lymphoma. Free doxorubicin and liposomal doxorubicin (DOXIL®) were used as controls for the experiments. The “WL00” moiety comprises the GFLG peptide (SEQ ID NO 1).
The efficacy of mpPEG-WL00-DXR in vivo was also evaluated. A single dose treatment of 30 mg/kg was used for the conjugate and DOXIL®, whereas 15 mg/kg (equivalent doxorubicin dose) was used for unconjugated DXR. […] The percent tumor growth inhibition at day 15 for CA 1043-136, TM 1192-029-1 and TM 1192-038 was 84, 79 and 84, respectively.
In addition, a DXR conjugate with 8.7% DXR loading (TM 1192-107-1) was evaluated in both human T-lymphoma cell line HUT 78 and ovarian cancer cell line A-2780R animal tumor model. […] It is also worth noting that the conjugate CA 1043-36 was very active after two years of storage as a lyophilized powder at 4° C.

[2] = test system: MCF7-WT (HER-2 negative) breast carcinoma cell line; experiment: EDR assay, MCF7-WT; assay type: cell-based; conditions: Homo sapiens, 120 h, 5 days of incubation
Protocol: as §1, §2, §3

[3] = Body distribution of DXR in mice bearing HuT 78 xenografts; assay type: in vivo, NIH III mice; conditions: 2.5 mg/kg, 72 hours
Protocol: NIH III mice bearing HuT 78 xenografts were administered with conjugated DXR and free DXR at a dose of 2.5 mg/kg of DXR equivalent. After 72 hours, the mice were sacrificed and tissue samples were prepared for analysis for free or total DXR.
The total amount of DXR was determined after hydrolysis of free and conjugated DXR to generate aglycon. The amount of bound conjugate was computed as the difference between total and free DXR.

[4] = test system: HER-2-positive fresh breast carcinoma specimens; experiment: EDR assay, HER-2-positive fresh breast carcinoma specimens; assay type: cell-based; conditions: Homo sapiens, read-out: IC50, HER-2-positive group
Protocol: (§4) Tumor cells were suspended in 0.12% soft agar in complete medium, and plated at different cell concentrations (typically, 3,000 cells for the cell lines and 15,000 cells per well for fresh tumor specimens) onto a 0.4% agarose underlayer in 24-well plates. Plating cells on agarose underlayers supports the proliferation only of the transformed cells, ensuring that the growth signal stems from the malignant component of the tumor.
as §2, with “analysis. The doxorubicin equivalent for the WL68-DXR stock solution was 4.06 μg/ml.” for “analysis.”
as §3
(§5) A monoclonal antibody against HER-2 (clone 4E200) was purchased from Neomarkers, Inc. (Fremont, Calif.) and used at 1 μg/ml. Optimal working concentrations and incubation time for the HER-2 antibody have been determined in preliminary experiments. […]

[5] = test system: human ovarian cancer cell line A-2780R; experiment: In vitro cytotoxicity assay (MTS), A-2780R; assay type: cell-based; conditions: DXR equivalent concentration, read-out: IC50 against A-2780R
Protocol: (§6) On the day prior to starting the assay, cells were fed with fresh tissue culture medium (RPMI 1640+10% FCS for most cell lines, use other media as appropriate). A conjugate test solution was prepared in culture medium, with a concentration that is twice the final desired test concentration. Typically with doxorubicin (DXR) conjugates, a DXR equivalent concentration range of 100 μM down to 0.1 μM, using 1:2 serial dilutions is used. All concentrations are calculated and reported in terms of final DXR concentration (as opposed to total conjugate concentration).
(§7) The cell suspension is prepared at a concentration of 1-2×10^6 cells/Ml in culture medium. To each well of a 96-well, flat-bottom, microtiter plate (Falcon Microtest III assay plates, No. 3872) was added 50 μl of the cell suspension prepared above. A 50 μl of conjugate solution was added to each well of the assay plate. […]
(§8) The following blank and control wells were prepared: Plate Blank=100 μl of tissue culture medium only; cell control=50 μl cell suspension+50 μl tissue culture medium; and conjugate Blanks=50 μl 2× conjugate solution +50 μl tissue culture medium. […] Using a 96-well microplate reader, the absorbance of each well was measured at 490 nm. For each conjugate test concentration, the % cytotoxicity was calculated using the following formula: % Cytotoxicity=(1−[Abs. Conjugate Test Group/Abs. Cell Control])×100.

[6] = test system: PC3 human prostate carcinoma cell line; experiment: EDR assay, PC3 (storage stability of stock solutions); assay type: cell-based
Protocol: as §1, §2, §3

[7] = test system: HER-2-negative fresh breast carcinoma specimens; experiment: EDR assay, HER-2-negative fresh breast carcinoma specimens; assay type: cell-based; conditions: Homo sapiens, nine specimens
Protocol: as §4
as §2, with “analysis. The doxorubicin equivalent for the WL68-DXR stock solution was 4.06 μg/ml.” for “analysis.”
as §3, §5

[8] = test system: human T lymphoma cell line HUT 78; experiment: In vitro cytotoxicity assay (MTS), HUT 78; assay type: cell-based; conditions: HuT78, 48 h, DXR equivalent concentration, about two days incubation, read-out: IC50 against HUT 78
Protocol: as §6, §7, §8

[9] = test system: human ovarian cancer cell line A-2780R tumor; experiment: In vivo efficacy, murine tumor model of subcutaneously implanted A-2780R; conditions: 30 mg/kg
Protocol: Efficacy of mpPEG-WL00-DXR conjugate was also compared with DOXIL® in a murine tumor model generated by subcutaneously implanting human ovarian cancer cell line A-2780R. […] At day 21, the tumor growth inhibition in the animal treated with TM 1192-029-1 animal was 92%. The unconjugated DXR at 30 mg/kg gave 70% tumor growth inhibition.

[10] = molecular target: T1, HER-2 receptor (human epidermal growth factor receptor-2) (human, UniProt P04626 23-1255); experiment: 125I-labelled peptide binding to SK-Br3 cells in suspension, cell-bound counts (Example 17)
T1 construct: whole, on cells; Presented on the HER-2-positive SK-Br3 cell line; Raji cells served as the negative control; also called c-erbB-2; neu
Protocol: WL38 was iodinated by using lodo-Gen method described in herein. Unbound ¹²⁵I was removed by ion-exchange chromatography with MP-1 resin, (BIO-RAD AG). SK-Br3 cells were removed from the flask bottom by the cell scraper, suspended, and centrifuged at 500×g for 1 min. The cell pellet was suspended in the binding buffer (50 mM PBS, 30 mM NaN₃, 0.5% BSA, pH 7.4). The cell suspension (100 μl) containing 500,000 cells were placed into a glass tube and incubated with ¹²⁵I-WL38 peptides at various concentrations. Unbound peptide was removed by centrifugation. Cells were dissolved in 1M NaOH, and applied for ¹²⁵I counting. Binding of the WL38 peptide to Raji cell which were used as a negative control was performed in a similar manner. Non-specific binding of the WL38 to A2870/R cells was determined on the background of unlabeled WL3 8 at concentration 100 μM.

| Molecule | IC50 [1] [µg/mL] | deaths (HUT 78 tumor; 15 mg/kg dose) | survival of animals (HUT 78 tumor; HUT 78 tumor study, 30 mg/kg, study period 21 days) | mean tumor growth inhibition at day 15 (HUT 78 tumor; single dose 15 mg/kg (equivalent doxorubicin dose)) [%] | IC50 [2] [µg/mL] | DXR per gram in tumor, heart and muscle tissues [3] | IC50 [4] [µg/mL] | IC50 [5] [µM] | IC50 ([6]; 336 h, after two weeks of storage at −70° C., read-out: IC50, PC3, after freezing the stock solution) [µg/mL] | IC50 ([6]; read-out: IC50, PC3, before freezing the stock solution) [µg/mL] | IC50 ([7]; average, read-out: IC50 (average), HER-2-negative breast carcinomas) [µg/mL] | IC50 ([7]; read-out: IC50 (span over specimens), HER-2-negative breast carcinomas) [µg/mL] | IC50 [8] [µM] | tumor growth inhibition [9] [%] | binding result [10] |
| --- | --- | --- | --- | --- | --- | --- | --- | --- | --- | --- | --- | --- | --- | --- | --- |
| COc1cccc2c1C(=O)c1c(O)c3c(c(O)c1C2=O)C[C@@](O)(C(=O)CO)C[C@@H]3O[C@H]1C[C@H](N)[C@H](O)[C@H](C)O1 [unconjugated DXR, doxorubicin] | 0.03 ± 0.02 (≈ 0.0552 µM) | one death out of four animals | five out of five animals died within seven days | 12 | 0.013 ± 0.004 (≈ 0.0239 µM) | Approximately equal amounts | 0.019 ± 0.02 (≈ 0.035 µM) | 14.2 | 0.022 (≈ 0.0405 µM) | 0.027 (≈ 0.0497 µM) | 0.025 ± 0.025 (≈ 0.046 µM) | 0.004 to 0.083 (≈ 0.00736 to 0.153 µM) | 2.1 | 70 | – |
| B1 | – | – | – | – | – | – | – | – | – | – | – | – | – | – | binds |
